# Results reported in ChEMBL document CHEMBL5038644 (J Med Chem, 2022).
# Bridge positions count the residues as written; N and C are the ends. Square brackets hold non-standard residues; d marks the D form. Peptide text beside a SMILES is read from it. AllylGly = C=CC[C@H](N)C(=O)O
# Tests used:
# [1] = biological target: T1, Apelin receptor (Homo sapiens) (UniProt P35414); experiment: Agonist activity at human APJ expressed in HEK293 cells assessed as maximal efficacy for dissociation of G alphai1 from the G beta gamma subunit by BRET-based G protein dissociation assay relative to control; assay type: functional, cell-based; settings: filed as agonist
# T1 sequence (whole entry): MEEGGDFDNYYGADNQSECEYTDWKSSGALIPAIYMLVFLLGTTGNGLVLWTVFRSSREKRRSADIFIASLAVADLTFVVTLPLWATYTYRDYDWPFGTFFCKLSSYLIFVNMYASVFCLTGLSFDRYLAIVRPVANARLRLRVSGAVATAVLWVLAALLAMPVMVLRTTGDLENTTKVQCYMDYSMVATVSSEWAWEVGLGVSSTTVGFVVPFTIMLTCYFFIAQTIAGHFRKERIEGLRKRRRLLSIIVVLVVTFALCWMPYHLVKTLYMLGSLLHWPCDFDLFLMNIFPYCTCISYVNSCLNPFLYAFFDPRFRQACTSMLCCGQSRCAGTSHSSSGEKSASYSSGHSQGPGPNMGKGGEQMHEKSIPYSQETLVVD
# [2] = biological target: T1, Apelin receptor (Homo sapiens); experiment: Agonist activity at human APJ expressed in HEK293 cell membrane assessed as maximal efficacy for recruitment of PDZ-RhoGEF Galphai1 to cell membrane by BRET-based G protein dissociation assay relative to control; assay type: functional; settings: filed as agonist
# [3] = biological target: T1, Apelin receptor (Homo sapiens); experiment: Agonist activity at human APJ expressed in HEK293 cell membrane assessed as maximal efficacy for recruitment of beta-arrestin2 to receptor by BRET-based beta-arrestin2 assay relative to control; assay type: functional; settings: filed as agonist
# [4] = biological target: T2, Apelin receptor (Homo sapiens, UniProt P35414); experiment: Displacement of [125I]-[Nle75,Tyr77][Pyr1]-Ape13 from YFP-tagged human APJ expressed in HEK293 cell membranes assessed as inhibition constant incubated for 1 hr by scintillation counting method
# T2 sequence (P35414 whole entry): T1 sequence (whole entry)
# [5] = tested on: Rattus norvegicus; experiment: Hypotensive effect in Sprague-Dawley rat assessed as decrease in blood pressure at 19.6 to 65 nmol/kg, iv relative to control; assay type: functional; settings: dose 19.6-65 nmol/kg
# [6] = biological target: T2, Apelin receptor; experiment: Agonist activity at human APJ expressed in HEK293 cell membrane assessed as recruitment of PDZ-RhoGEF Galpha12 to cell membrane by BRET-based G protein dissociation assay; assay type: functional
# [7] = Stability in Sprague-Dawley rat plasma assessed as half life measured upto 24 hrs by UPLC-MS analysis; assay type: ADME, cell-free
Compound,Emax [1] [%],Emax [2] [%],Emax [3] [%],Ki [4] [nM],EC50 [6] [nM],half-life [7] [min],Activity [5] [mmHg]
CC(C)C[C@@H]1NC(=O)[C@H](CCCNC(=N)N)NC(=O)[C@@H](N)C/C=C\C[C@@H](C(=O)N[C@@H](CCCCN)C(=O)NCC(=O)N2CCC[C@H]2C(=O)N[C@H](Cc2ccc(OCc3ccccc3)cc2)C(=O)O)NC(=O)[C@H](CO)NC1=O,104,48,78,–,–,–,–
CC(C)C[C@@H]1NC(=O)[C@H](CCCNC(=N)N)NC(=O)[C@@H](N)C/C=C\C[C@@H](C(=O)N[C@@H](CCCCN)C(=O)NCC(=O)N2CCC[C@H]2C(=O)N[C@@H](C)C(=O)O)NC(=O)[C@H](CO)NC1=O (H-[AllylGly]RLS[AllylGly]KGPA-OH; staple (Z) 1-5),–,–,–,> 10000,–,–,–
CC(C)C[C@@H]1NC(=O)[C@H](CCCNC(=N)N)NC(=O)[C@@H](N)C/C=C\C[C@@H](C(=O)N[C@@H](CCCCN)C(=O)O)NC(=O)[C@H](CO)NC1=O (H-[AllylGly]RLS[AllylGly]K-OH; staple (Z) 1-5),–,–,–,> 10000,–,–,–
C=CC[C@H](NC(=O)[C@H](CO)NC(=O)[C@H](CC(C)C)NC(=O)[C@H](CCCNC(=N)N)NC(=O)[C@@H](N)CC=C)C(=O)N[C@@H](CCCCN)C(=O)NCC(=O)N1CCC[C@H]1C(=O)N[C@@H](CCCC)C(=O)N1CCC[C@H]1C(=O)N[C@@H](Cc1ccccc1)C(=O)O,–,–,–,170,–,6,–

# More lines, main results first:
Emax [1] [%],Emax [2] [%],Emax [3] [%],Ki [4] [nM],EC50 [6] [nM],half-life [7] [min],Compound,Activity [5] [mmHg]
99,98,115,–,–,–,CCCC[C@H](NC(=O)[C@@H]1CCCN1C(=O)CNC(=O)[C@H](CCCCN)NC(=O)[C@@H]1Cc2cncn2C/C=C/C[C@H](NC(=O)[C@H](CCCNC(=N)N)NC(=O)[C@@H]2CCC(=O)N2)C(=O)N[C@@H](CCCNC(=N)N)C(=O)N[C@@H](CC(C)C)C(=O)N[C@@H](CO)C(=O)N1)C(=O)N1CCC[C@H]1C(=O)N[C@@H](Cc1ccccc1)C(=O)O,-36
100,45,54,–,–,–,CC(C)C[C@@H]1NC(=O)[C@H](CCCNC(=N)N)NC(=O)[C@@H](N)C/C=C\C[C@@H](C(=O)N[C@@H](CCCCN)C(=O)NCC(=O)N2CCC[C@H]2C(=O)N[C@H](Cc2ccc(O)cc2)C(=O)O)NC(=O)[C@H](CO)NC1=O,–
106,93,82,–,–,–,CCCC[C@H](NC(=O)[C@@H]1CCCN1C(=O)CNC(=O)[C@H](CCCCN)NC(=O)[C@@H]1CCN(S(=O)(=O)c2ccccc2[N+](=O)[O-])C/C=C/C[C@H](N)C(=O)N[C@@H](CCCNC(=N)N)C(=O)N[C@@H](CC(C)C)C(=O)N[C@@H](CO)C(=O)N1)C(=O)N1CCC[C@H]1C(=O)N[C@@H](Cc1ccccc1)C(=O)O,–
103,105,92,–,–,–,CCCC[C@H](NC(=O)[C@@H]1CCCN1C(=O)CNC(=O)[C@H](CCCCN)NC(=O)[C@@H]1C/C=C\C[C@H](NC(=N)N)C(=O)N[C@@H](CCCNC(=N)N)C(=O)N[C@@H](CC(C)C)C(=O)N[C@@H](CO)C(=O)N1)C(=O)N1CCC[C@H]1C(=O)N[C@@H](Cc1ccccc1)C(=O)O,–
102,100,75,–,63,–,CCCC[C@H](NC(=O)[C@@H]1CCCN1C(=O)CNC(=O)[C@H](CCCCN)NC(=O)[C@@H]1CCCC[C@H](NC(=O)[C@H](CCCNC(=N)N)NC(=O)[C@@H]2CCC(=O)N2)C(=O)N[C@@H](CCCNC(=N)N)C(=O)N[C@@H](CC(C)C)C(=O)N[C@@H](CO)C(=O)N1)C(=O)N1CCC[C@H]1C(=O)N[C@@H](Cc1ccccc1)C(=O)O,–
100,98,98,–,–,–,CCCC[C@H](NC(=O)[C@@H]1CCCN1C(=O)CNC(=O)[C@H](CCCCN)NC(=O)[C@@H]1C/C=C\C[C@H](N)C(=O)N[C@@H](CCCNC(=N)N)C(=O)N[C@@H](CC(C)C)C(=O)N[C@@H](CO)C(=O)N1)C(=O)N1CCC[C@H]1C(=O)N[C@@H](Cc1ccccc1)C(=O)O,-27
